US20260234116A1, “CYTOTOXIC EPOXYKETONE COMPOUNDS, PRECURSORS, COMPOSITIONS, AND METHODS OF USE” (Memorial Sloan-Kettering Cancer Center, priority 2023, published 2026)

Experiments:
[1] = Stability of β-ketoacid substrates (decarboxylation, 1H-NMR or SPE-MS/MS); format: physicochemical
Experimental: To assess rates of decarboxylation under conditions relevant to storage, biochemical assays, and cellular assays, we investigated the stability of eponemycin-based β-ketoacids 11a and 11c under a variety of conditions as shown in below Table C.
For samples stored neat, β-ketoacid 11 (lyophilized powder) was aliquoted into 1.5-2 mg samples in glass vials and placed under Ar. Samples were stored on the bench top (20-25° C.), in at 4° C. refrigerator or in a −20° C. freezer. At each time point, an entire aliquot was dissolved in CD3OD (600 μL) analyzed by ^1H-NMR for decarboxylation to the corresponding isopropyl ketone byproduct 22. The degree of decarboxylation was determined by comparing integrations of two singlet peaks at 1.40 and 1.33 ppm, arising from the α,α-dimethyl groups in the β-ketoacid 11, to two doublet peaks at 1.09 and 1.06 ppm, arising from the isopropyl methyl groups in the decarboxylation product 22. A septuplet corresponding to the methine proton of the isopropyl group was also observed at 2.91 ppm.
For samples stored in PBS, aliquots of β-ketoacid 11 were dissolved in deuterated PBS (600 μL) and incubated in a 37° C. shaking incubator. At each time point, one aliquot was removed and analyzed by ^1H-NMR as above. NMR changes observed in deuterated PBS were similar to those observed in CD3OD above.
For samples stored in RPMI, β-ketoacid 11 (lyophilized powder) was dissolved in EtOH to a working stock concentration of 20 mM. The sample was diluted in RPMI to 100 μM (1000 μL) and incubated at 37° C. At each time point, an aliquot (50 μL) was removed from the master sample, transferred to a 96-well plate, quenched with 4 vol MeOH, centrifuged at 4,000 g to precipitate debris, and immediately analyzed by SPE-MS/MS to quantitate β-ketoacid 11 remaining.

EpnF = EpnF (Streptomyces hygroscopicus, UniProt V5RMU9); test: Enzyme kinetic analysis by SPE-MS/MS assay; format: biochemical; conditions: relative to 11n
Chain of EpnF (V5RMU9 entry or part of it): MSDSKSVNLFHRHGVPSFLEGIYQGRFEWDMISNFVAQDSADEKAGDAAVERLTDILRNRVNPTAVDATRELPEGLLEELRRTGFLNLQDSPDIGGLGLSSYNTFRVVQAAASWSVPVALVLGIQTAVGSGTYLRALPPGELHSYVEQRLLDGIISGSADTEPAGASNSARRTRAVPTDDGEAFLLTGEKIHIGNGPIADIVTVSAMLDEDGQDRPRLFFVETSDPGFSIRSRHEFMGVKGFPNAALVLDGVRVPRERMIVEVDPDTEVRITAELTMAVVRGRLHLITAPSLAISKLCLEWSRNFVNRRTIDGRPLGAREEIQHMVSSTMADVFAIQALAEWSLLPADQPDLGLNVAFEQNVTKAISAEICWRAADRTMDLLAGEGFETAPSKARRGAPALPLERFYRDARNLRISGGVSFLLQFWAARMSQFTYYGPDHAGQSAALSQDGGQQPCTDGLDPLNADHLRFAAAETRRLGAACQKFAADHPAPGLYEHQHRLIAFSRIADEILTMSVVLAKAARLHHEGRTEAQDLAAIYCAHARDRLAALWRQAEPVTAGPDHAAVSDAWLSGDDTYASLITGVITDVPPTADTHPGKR
Experimental: SPE-MS/MS analyses were carried out on an Agilent RapidFire 365 High-Throughput Mass Spectrometry System with 6495 triple quadrupole mass spectrometer. Determination of initial velocity: EpnF stock at 100 μM was diluted 10-fold in EpnF Buffer to a 10 μM working solution, which was further diluted to 8 concentrations (10-0.005 μM) in EpnF Buffer (intermediate volume 1350 μL, concentrations calculated for 1500 μL theoretical final volume corresponding to addition of substrate solutions below). The 8 EpnF enzyme dilutions were aliquoted (90 μL) into the corresponding 8 tubes of PCR tube strips (12 strips, one per time point; Thermo Scientific, AB-2000). The β-ketoacid 11 (20 mM in EtOH) was diluted to 10 μM in EpnF Buffer, then 10 μL of this solution was added to each of the tubes (1 μM final concentration, 100 μL final volume) to initiate the reaction. Samples were incubated in a heated shaker at 37° C. and 225 rpm for up to 120 min, and one tube strip was removed at each time point. Each tube was quenched with 5% formic acid in EpnF Buffer (100 μL), pipetted vigorously, and flash frozen on dry ice. Samples were thawed then centrifuged to precipitate protein and transferred to a conical-bottom 96-well plate (Thermo Scientific/Nunc, 249944) for SPE-MS/MS analysis. Measurement of Km and Vmax: Using the data from the initial velocity experiments above, an appropriate EpnF enzyme concentration was selected for each β-ketoacid 11 at which the rate of conversion to the epoxyketone 12 remained linear at 10 min (0.50 μM for 11n and 0.05 μM for all other substrates). Each substrate (20 mM in EtOH) was diluted to 1 mM in EpnF Buffer, then diluted to 8 concentrations (100-0.5 μM) in EpnF Buffer (intermediate volume 1350 μL, concentrations calculated for 1500 μL theoretical volume corresponding to addition of enzyme solutions below). The 8 substrate dilutions were aliquoted (90 μL) into the corresponding 8 tubes of PCR tube strips (12 strips, one per time point; Thermo Scientific, AB-2000). The EpnF enzyme stock solution was diluted in EpnF Buffer to the appropriate concentration for each substrate, then 10 μL of this solution was added to each of the tubes (100 μL final volume) to initiate the reaction. For the 0-min time point, 5% formic acid in EpnF Buffer was added to the β-ketoacid substrate before addition of the enzyme. Samples were incubated in a heated shaker at 37° C. and 225 rpm for up to 10 min, and one tube strip was removed at each time point. Each tube was quenched by addition of 5% formic acid in EpnF Buffer (100 μL), pipetted vigorously, and flash frozen on dry ice. Samples were thawed then centrifuged to precipitate proteins and the supernatants were transferred to a conical-bottom 96-well plate (Thermo Scientific/Nunc, 249944) for SPE-MS/MS analysis. Km and Vmax values for each substrate were calculated by Michaelis-Menten analysis. To obtain a quantitative assessment of EpnF substrate specificity, we developed a kinetic assay (10 min) using SPE-MS/MS (solid-phase extraction/triple quadrupole mass spectrometry; Agilent RapidFire 365 with 6495 MS) to enable direct detection of both substrates and products.

half-life at 100 μM ([1]; RPMI medium, RPMI, 37° C.): 2.5 h
half-life ([1]; deuterated PBS, PBS, 37° C.): 4.5 h
half-life ([1]; neat lyophilized powder, neat, 4° C.): > 336 h
half-life ([1]; neat lyophilized powder, neat, 25° C.): 120 h
half-life ([1]; neat lyophilized powder, neat, −20° C.): > 336 h
% remaining at last time point ([1]; neat, 4° C.): d (80%)
% remaining at last time point ([1]; neat, −20° C.): d (95%)
converted more efficiently than 11n (EpnF): ≈ 20 fold
Structure (SMILES): CC(C)CCCCC(=O)N[C@@H](CO)C(=O)N[C@@H](CC(C)C)C(=O)C(C)(C)C(=O)O [Compound 11a, (4S)-4-[(2S)-3-Hydroxy-2-(6-methylheptanamido)propanamido]-2,2,6-trimethyl-3-oxoheptanoic acid]
stability / rate of decarboxylation (in words) ([1]; neat at low temperatures, buffer or media at 37° C.): fairly stable when stored neat at low temperatures
